Measurements reported in PMC9736275 (International Journal of Molecular Sciences, 2022).

Target: T1, ATA-Gze (Fusarium graminearum, UniProt I1RDQ2)
T1 construct: gene FGRAMPH1_01T04291
T1 sequence (I1RDQ2 1-325): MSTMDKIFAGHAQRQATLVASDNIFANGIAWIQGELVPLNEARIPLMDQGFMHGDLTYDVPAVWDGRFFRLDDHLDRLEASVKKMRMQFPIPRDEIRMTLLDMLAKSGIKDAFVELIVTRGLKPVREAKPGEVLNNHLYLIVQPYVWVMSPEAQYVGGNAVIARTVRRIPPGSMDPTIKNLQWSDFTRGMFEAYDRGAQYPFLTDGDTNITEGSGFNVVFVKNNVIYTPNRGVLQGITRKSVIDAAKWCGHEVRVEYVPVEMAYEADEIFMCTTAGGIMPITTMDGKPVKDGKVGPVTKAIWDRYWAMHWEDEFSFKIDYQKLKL

In the case of `C[C@@H](N)c1ccccc1` [(R)-1-phenylethylamine], the Km is reported as “The kinetic parameters are shown in Table S3 and Figure S1”.
